Data set [1] in a line: Plasma Ang-(1-7) levels by radioimmunoassay at end of intravenous infusion. Conditions: MI rats, iv infusion 24 μg/kg per hour. It counts as in vivo, rat. The method, then: (§1) The Animal Research Committee of the University of Groningen approved this study. Left coronary artery ligations were performed in 39 male Sprague-Dawley rats weighing 250 to 300 g (Harlan; Zeist, the Netherlands).^14 Perioperative mortality was 49%. Two weeks after induction of MI, rats were randomly allocated to intravenous infusion of either Ang-(1-7) (24 μg/kg per hour; n=10) or saline (n=10) by osmotic minipumps (Alzet 2004). Sham-operated controls (n=10) received saline. After eight weeks of treatment, hemodynamic studies were performed under isoflurane anesthesia with a microtip pressure transducer,^15 coronary flow was measured in a Langendorff setup,^14 endothelial function was tested in isolated aortic rings,^14 and plasma Ang-(1-7) levels were measured by radioimmunoassay.^16

Data set [2] has as its system male Sprague-Dawley rats with myocardial infarction (left coronary artery ligation). The data set can be described thus: General characteristics and histology after eight weeks of treatment in rat coronary artery ligation (MI) model. It counts as in vivo. Here is the method:
as §1
Midventricular slices were processed for histochemical analysis. Infarct size was determined on picrosirius red/fast green-stained sections and was expressed as the percentage of scar length of total left ventricular circumference.^14 Rats with infarcts smaller than 20% were excluded (n=3 for Ang-(1-7) and n=1 for saline-treated rats). Capillary density was determined on sections stained with biotin-labeled Griffonia siinplicifolia lectin I (GSL-I) and hematoxylin and was expressed as the number of capillaries per mm^2. Myocyte cross-sectional area was measured on hematoxylin/eosin-stained sections.
Data are presented as mean±SEM. Statistical analysis between the groups was performed by one-way ANOVA followed by Bonferroni's t test. Differences in dose-response curves were tested by ANOVA for repeated measures with Greenhouse-Geisser correction for asphericity. Differences were considered significant at P<0.05.

Data set [3] has as its system isolated aortic rings of infarcted rats. The data set can be described thus: Endothelium-dependent relaxation in isolated aortic rings of treated MI rats. The class given is in vivo, rat. Conditions: aortic rings of MI rats after eight weeks of Ang-(1-7); P<0.05 versus MI control. Here is the method:
as §1
Endothelial dysfunction is a key feature in heart failure.^14 To examine the effects of Ang-(1-7) treatment on this aspect of cardiac failure, we investigated endothelium-dependent relaxation in isolated aortic rings. Phenylephrine elicited similar contractile responses in all three groups (data not shown). […] The relaxation in response to the endothelium independent vasodilator NaNO2 (10^−2 mol/L) was equal in the three groups (data not shown).

Data set [4] relates to hearts of infarcted rats (Langendorff setup). The data set can be described thus: Ex vivo coronary flow in a Langendorff setup, hearts of treated MI rats. Further details: species or system rat. The method, then: as §1
(§2) After eight weeks of treatment, cardiac function was measured in vivo in anesthetized rats. […] Coronary flow was measured ex vivo in a Langendorff setup. […] Coronary endothelial function and maximal coronary flow were tested by a two-minute infusion of 3×10^−8 mol/L bradykinin and 10^−5 mol/L adenosine, respectively.

The subject of data set [5] is male Sprague-Dawley rats with myocardial infarction (left coronary artery ligation). The data set can be described thus: In vivo hemodynamic studies under isoflurane anesthesia with microtip pressure transducer in MI rats. The arrangement: species or system rat. The method, then: as §1, §2
Where [6] appears, read: Ang-(1-7) 24 μg/kg per hour iv, eight weeks, mean ± SEM.

Turning to `CC[C@H](C)[C@H](NC(=O)[C@H](Cc1ccc(O)cc1)NC(=O)[C@@H](NC(=O)[C@H](CCCNC(=N)N)NC(=O)[C@@H](N)CC(=O)O)C(C)C)C(=O)N[C@@H](Cc1c[nH]cn1)C(=O)N1CCC[C@H]1C(=O)O` [Ang-(1-7), angiotensin-(1-7)], in data set [1] (end of eight weeks of treatment, mean ± SEM), the “[Ang-(1-7)] plasma concentration of angiotensin-(1-7)” value turned out to be 917.8 ± 194.1 pmol/L. Moreover, the “increase of plasma levels of the peptide compared with MI controls” value in data set [1] (end of treatment) was found to be 40 fold. The level at time molar at 1344 h in data set [1] (male, Sprague-Dawley, rat, plasma, 24 ug/kg per hour, end of eight weeks of treatment, mean ± SEM, read-out: [Ang-(1-7)] plasma concentration of angiotensin-(1-7)) came to 0.918 ± 0.194 nM. Besides, the capillary density in data set [2] (Ang-(1-7) 24 μg/kg per hour iv, eight weeks, GSL-I lectin stain, mean ± SEM) stood at 2578 ± 176 N/mm^2. For the same molecule, the myocyte cross-sectional area in data set [2] (Ang-(1-7) 24 μg/kg per hour iv, eight weeks, hematoxylin/eosin-stained sections, mean ± SEM) stood at 409 ± 21. In data set [2] (setting [6]), the “LVW/BW (left ventricular weight body weight ratio)” value is reported as 3.42 ± 0.10 mg/g and the “infarct size (percentage of scar length of total left ventricular circumference)” value is on record as 29.6 ± 3.3%. Moreover, in data set [2] (eight weeks of Ang-(1-7)), the “myocyte cross-sectional area increase after infarction, in words” value is “attenuated to a nonsignificant level”. In addition, in data set [2] (eight weeks of treatment), the “capillary density versus saline-treated MI group, in words” value is on record as “did not differ” and the “infarct size versus saline-treated MI group, in words” value is “did not differ”. The “metacholine-induced relaxation of phenylephrine pre-contracted aortic rings, in words” value in data set [3] was “identical to sham rats”. For the same molecule, in data set [4] (Langendorff, MI rats after eight weeks of Ang-(1-7)), the “baseline coronary flow compared with sham-operated hearts, in words” value is on record as “almost completely preserved”. In addition, the “maximal coronary flow after adenosine infusion compared with sham, in words” value in data set [4] (Langendorff, adenosine 10^−5 mol/L, MI rats after eight weeks of Ang-(1-7)) is given as “the difference did not reach statistical significance”. In addition, the “bradykinin-dependent coronary flow compared with sham, in words” value in data set [4] (Langendorff, bradykinin 3×10^−8 mol/L, MI rats after eight weeks of Ang-(1-7)) was “not significantly impaired”. Besides, the “Ex vivo coronary flow, baseline” value in data set [4] (hearts of MI rats after eight weeks of Ang-(1-7) 24 μg/kg per hour iv, baseline) is 8.2 ± 0.6 ml/min per g ventricular weight. Further, the “Ex vivo coronary flow, adenosine 10^−5 M” value in data set [4] (hearts of MI rats after eight weeks of Ang-(1-7), two-minute infusion of adenosine 10^−5 M (maximal coronary flow)) is on record as 12.3 ± 0.8 ml/min per g ventricular weight. For the same molecule, the “Ex vivo coronary flow, bradykinin 3 × 10^−8 M” value in data set [4] (hearts of MI rats after eight weeks of Ang-(1-7), two-minute infusion of bradykinin 3 × 10^−8 M (coronary endothelial function)) is reported as 11.1 ± 0.7 ml/min per g ventricular weight. In addition, the “mean arterial pressure, in words” value in data set [5] (MI rats infused with Ang-(1-7), eight weeks) is given as “an increase in mean arterial pressure was found”. Moreover, in data set [5] (MI rats, eight weeks of Ang-(1-7) treatment), the “reduction in left ventricular end-diastolic pressure” value worked out at 40%. For the same molecule, the “cardiac function (hemodynamic parameters LVP, LVEDP, MAP, +dP/dt, −dP/dt) compared with sham, in words” value in data set [5] (anesthetized MI rats after eight weeks of treatment) was “none of these parameters were significantly deteriorated, except the systolic dP/dt”.
